Drawing on the METLIN SMRT retention time set (Domingo-Almenara et al. 2019), this text covers RP-LC retention time for 79 molecules.

The data set in a line: gradient 5% acetonitrile 3 min, to 50% in 2 min, to 85% in 15 min, held 3 min, 100 µL/min. Conditions: column: Zorbax Extend-C18 2.1 x 50 mm; eluents: water / acetonitrile, 0.1% formic acid. The gist of the method:
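Standards, all pure, were combined into mixtures of ~100 molecules and run at 100 μL/min on a Zorbax Extend-C18 column (2.1 × 50 mm, 1.8 μm) with water and acetonitrile, each containing 0.1% formic acid. A coupled quadrupole time-of-flight mass spectrometer operated in positive and negative ionization mode. Retention time values come from computationally picked adduct peaks, each inspected manually.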
For `CC(C)(C)c1csc(-c2csc(S(=O)(=O)NCCN3CCc4ccccc4C3)c2)n1`, the RP-LC retention time worked out at 846 s.

In turn, `CCn1c(=O)n(CC)c2cc(S(=O)(=O)c3ccc(C)cc3)c(N)cc21` displayed an RP-LC retention time of 760 s.

The molecule `O=C(NCCc1csc(-c2ccccc2)n1)C1CCN(C(=O)c2ccc(F)c(F)c2)CC1` yielded an RP-LC retention time of 816 s. Then `COc1ccc(-c2cc(N3CCN(C(=O)NC(C)C)CC3)ncn2)cc1OC`, with 602 s; and `O=C(Nc1ccc2c(c1)OCCO2)c1cn(-c2cc(N3CCSCC3)ncn2)cn1`, with 832 s; and `O=C(NCc1ccc(F)cc1)c1nnc(-c2ccc(S(=O)(=O)N3CCCC3)cc2)o1`, with 888 s. Under `COC(=O)Cn1c2ccc(F)cc2c2nc3ccccc3nc21` stands 658 s; under `Cc1nnc(CNC(=O)C(=O)Nc2ccon2)o1`, 534 s. Under `O=C(NCc1ccccc1)Nc1cccc(-c2ccc(N3CCOCC3)nn2)c1` stands 672 s. For `Cn1cc(-c2cc3n(n2)CCC(=O)N3CC(=O)N2CCC(N3CCCCC3)CC2)c2ccccc21`, the RP-LC retention time amounted to 623 s. Under `CCOc1ccc(-c2csc3c(=O)n(Cc4cccc(Br)c4)cnc23)cc1OCC` stands 1210 s. Under `Cc1ccc(CNC(=O)C2CCN(S(=O)(=O)c3cc(C(=O)N(C)C)cs3)CC2)cc1` stands 762 s; under `O=C(c1cnccn1)N1CCCC1c1nc(-c2ccc(F)cc2F)no1` (centres undefined), 782 s; under `Cc1ccccc1CNC(=O)C1(C)CCCN(C(=O)Nc2ccc(Cl)cc2)C1` (centres undefined), 995 s.

For `CCCCNC(=O)c1nc(Nc2ccc(CC)cc2)c2ccccc2n1`, the RP-LC retention time worked out at 916 s. Under `CC(=O)N1CCc2ccc(NC(=O)Nc3ccccc3Cl)cc21` stands 755 s; under `Cn1nnc2ccc(-c3noc(-c4cccc(F)c4)n3)cc21`, 1010 s; under `CCc1cc(N2CCN(C(=O)COc3ccc(F)cc3)CC2)nc2nncn12`, 566 s. Under `CC(C)(C)NC(=O)N1CCN(Cc2nc3cccnc3n2-c2cccc(F)c2)CC1` stands 648 s.

Turning to `CCCC1c2nccn2CCCN1C(=O)c1cc(C2CC2)[nH]n1` (centres undefined), the RP-LC retention time was 596 s. On to `COc1cccc(CC(=O)Nc2ccc3c(c2)Sc2ncccc2C(=O)N3C)c1`, for which the RP-LC retention time is 762 s. `CC1CCN(S(=O)(=O)c2ccc3nc(N4CCN(c5ccccn5)CC4)ccc3c2)CC1` gave an RP-LC retention time of 691 s.

For the molecule `O=C(c1ccc2oc(=O)n(CC(=O)N3CCc4ccccc43)c2c1)N1CCCCC1`, the RP-LC retention time was 845 s. Under `CCN1CCN(c2ncc3c(n2)CC(c2cc(OC)c(OC)c(OC)c2)CC3=O)CC1` (centres undefined) stands 564 s; under `CCOC(=O)CSCC(=O)Nc1nnc(-c2cccc([N+](=O)[O-])c2)s1`, 764 s; under `COc1ccc(S(=O)(=O)NC2CCN(c3ccc(=O)n(CC4CC4)n3)C2)cc1Cl` (centres undefined), 800 s. Then `CC(C)C(=O)N1CCCC(c2nc(CNC(=O)C3CCC3)cs2)C1` (centres undefined), with 679 s; and `Cc1cccc(NC(=O)C2CCN(S(=O)(=O)c3cn(C(C)C)cn3)CC2)c1`, with 781 s.

Regarding `CC(CNC(=O)C1CCN(S(=O)(=O)c2cn(C(C)C)cn2)CC1)c1ccccc1` (centres undefined), the RP-LC retention time is 764 s. Molecule `Cc1c(C(=O)NCc2c(F)cccc2F)c(C(F)(F)F)nn1C(C)C` showed an RP-LC retention time of 867 s. Under `CCN(CC)c1nc(C(=O)N2CCC(N3CCCCC3)CC2)nc2nc(C)cc(C)c12` stands 568 s; under `COc1cc(CNC(=O)CCCC/C=C\C(C)C)ccc1O`, 947 s. The molecule `COc1cc(NC(=O)C2CN(S(=O)(=O)C3CC3)CC23CCCCC3)cc(OC)c1` (centres undefined) yielded an RP-LC retention time of 955 s. Then `O=C1CC(c2noc(-c3ccc(OC(F)(F)F)cc3)n2)CN1c1ccc(F)cc1` (centres undefined), with 1040 s; and `Cn1c(=O)sc2cc(S(=O)(=O)N3CCC(C(=O)NCCc4cccs4)CC3)ccc21`, with 813 s. Under `COC(=O)C1=CN(C2CC2)c2cc(N3CCC4(CC3)OCCO4)c(F)cc2S1(=O)=O` stands 806 s.

Take `CC1=NS(=O)(=O)N(Cc2ccccc2)C=C1C(=O)OCc1ccccc1Cl`: the RP-LC retention time was 1160 s. As for `COc1ccc(C(=O)N2CCc3ccc(C(=O)NC4CCN(C)CC4)cc32)cc1`, the RP-LC retention time is 618 s. Under `Cc1ccc(NS(=O)(=O)c2ccc(-c3c(C)noc3C)cc2)c(Cl)c1` stands 1020 s; under `CCN(CC)c1ccc(NC(=O)CSc2ccc(N3CCCC(C(=O)NC4CC4)C3)nn2)c(C)c1` (centres undefined), 529 s; under `O=C(NCc1ccc2c(c1)OCO2)C(=O)NCC1CCN(S(=O)(=O)C2CC2)CC1`, 711 s. Then `Cc1ccc(-c2nc3n(CC(=O)NC4CC4)c4c(c(=O)n3n2)CCC4)cc1`, with 702 s; and `O=C(CCC1CCCC1)N1CCc2c([nH]c3ccccc23)C1c1ccc(Cl)cc1` (centres undefined), with 1060 s. Under `O=C(Cn1cc(Cl)cn1)N1CCCC1c1cccc(F)c1` (centres undefined) stands 836 s.

`CC(C)CNC(=O)NCCn1nnc2cc(C(=O)N3CCCC3)ccc21` had an RP-LC retention time of 618 s. Then `O=C(NC1CCCCCC1)c1ccc(CN2C(=O)C3CCCN3C(=O)c3ccccc32)cc1` (centres undefined), with 818 s. Under `CCOC(=O)CSc1nnc2n1CCN2c1ccc(OC)cc1` stands 707 s; under `OC1(c2ccccn2)CCOC2(CCN(Cc3c(F)cccc3Cl)CC2)C1` (centres undefined), 560 s; under `Cc1cc(C)c(OCC(=O)N(Cc2ccc(C)o2)C2CCS(=O)(=O)C2)c(C)c1` (centres undefined), 1030 s.

For `O=C(Nc1cccc(C(F)(F)F)c1)C1CCCN(c2ncnc3c2nc2n3CCCCC2)C1` (centres undefined), the RP-LC retention time was 958 s.

Take `Cc1ccc(NC(=O)Cn2nc3c(Oc4cc(C)cc(C)c4)nccn3c2=O)cc1`: the RP-LC retention time came out at 871 s. Under `O=C(c1cccs1)N1CCN(c2ccc(=O)n(-c3ccccc3)n2)CC1` stands 733 s; under `CC(C)N1C(=O)C(C)N(C(=O)NCCN(C)C)c2cccnc21` (centres undefined), 565 s.

Turning to `CC1=C(C(=O)Nc2cc3cn[nH]c3cc2F)C(c2ccc(C(F)(F)F)cc2)CC(=O)N1` (centres undefined), the RP-LC retention time is 734 s. Then `COc1ccc(-n2c(=O)n(C)c(=O)c3cc(C(=O)NCc4ccccc4OC)cnc32)cc1`, with 859 s; and `CCOc1cccc(CNc2nc3ccncc3n(CC)c2=O)c1`, with 665 s; and `O=C(CCn1nnc2cc(-c3noc(-c4cccc(Br)c4)n3)ccc21)N1CCOCC1`, with 980 s. Regarding `CCCOc1ccc(C2C(=O)N(C3CCCCC3)CC(=O)N2Cc2ccco2)cc1OC` (centres undefined), the RP-LC retention time came to 973 s.

In turn, `COc1ccc(-c2cn3ccn(-c4ccc(F)c(Cl)c4)c(=O)c3n2)cc1` gave an RP-LC retention time of 862 s. Then `COc1ccc(CC(=O)NCCc2cn(C)c3ncccc23)cc1Cl`, with 679 s; and `CC(C)NC(=O)N1CCC2(CC1)C(=O)N(C)c1ccccc12`, with 697 s. Then `Cn1cnc(S(=O)(=O)N2CCCN(S(=O)(=O)Cc3ccccc3)CCNC(=O)CC2c2ccccc2)c1` (centres undefined), with 711 s; and `CC(=O)c1ccc(NC(=O)CCSc2ccc(Cl)cc2)cc1`, with 887 s. Consider `CC(=O)c1cccc(NC(=O)c2cnc(-c3ccccc3)nc2-c2ccncc2)c1`, for which the RP-LC retention time stood at 800 s.

Molecule `O=C(NCC1CCOCC1)Nc1c(F)cccc1F` gave an RP-LC retention time of 628 s. Then `CCc1ccc(NC(=O)C2CCCN(S(=O)(=O)c3cn(CC)cn3)C2)cc1` (centres undefined), with 753 s; and `O=C(NCc1cc(F)ccc1F)C1CCN(c2cncnc2N2CCCCC2)CC1`, with 709 s; and `CCc1ccc(NC(=O)C2CCCN2S(=O)(=O)c2ccc3c(c2)CCCC(=O)N3)cc1` (centres undefined), with 835 s.

The molecule `O=C(Nc1ccccc1)Nc1ccccn1` displayed an RP-LC retention time of 736 s. `Cc1ccc(Nc2c(-c3ccc(C)cc3)nc3ccc(Br)cn23)cc1` had an RP-LC retention time of 849 s. Then `COc1cccc2c1[C@@H]1CN(CCCCN3C(=O)NC4C(SC5NCC(c6ccccc6)NC54)C3=O)C[C@@H]1CO2` (some centres undefined), with 902 s; and `COc1cccc(-c2cc(=O)n3c4ccccc4n(CC(=O)NC(C)C)c3n2)c1`, with 858 s; and `CCn1nnc2ccc(-c3noc(C(C)NC(=O)c4ccccc4)n3)cc21` (centres undefined), with 689 s. For the molecule `O=C(Nc1ccccc1F)N1CCC(n2cnc3ccc(Cl)cc3c2=O)CC1`, the RP-LC retention time is 806 s. Then `CSc1ccc(-c2nc3ccccn3c2NC2CCCCC2)cc1`, with 802 s; and `O=c1c2cnc3nc(-c4ccccc4Cl)nn3c2ccn1CCc1c[nH]c2ccc(F)cc12`, with 947 s. Then `COc1ccc(C(=O)N2CCC(c3cc(N)on3)CC2)cc1F`, with 659 s; and `Cn1ncc2c3ccccc3n(CCCC(=O)NCc3ccccc3F)c2c1=O`, with 812 s. Then `CC1CC(=O)N(CC(=O)NCc2ccc3c(c2)OCO3)c2ccccc2S1` (centres undefined), with 741 s.
